This note sets out measurements from PubChem BioAssay (NCI).

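Step 1: Grow cells in 96-well plates. Step 2: Expose to compound for 48 hours at 5 concentrations. Step 3: Interpolate endpoints linearly; if unreached, use highest concentration. The concentration for 50% growth inhibition is given as GI50. TGI is the concentration that stops growth completely.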

What all share (assay): NCI tumour cell line growth inhibition, 48 h
Assay [1] relates to SNB-19 CNS.
Assay [2] concerns MOLT-4 leukemia.
Assay [3] concerns OVCAR-3 ovarian.
The test system of assay [4] is MALME-3M melanoma.
Assay [5] concerns SK-OV-3 ovarian.
Assay [6] deals with NCI-H23 lung.
Assay [7] has as its system OVCAR-5 ovarian.
Assay [8] concerns TK-10 renal.
The subject of assay [9] is SW-620 colon.
The subject of assay [10] is SK-MEL-28 melanoma.

Turning to `O=C(O)c1nn(-c2ccc(Cl)cc2)c2c1C(=O)c1ccccc1C2=O`, the TGI in [1] is > 100 µM; in assay [2], 88 µM; in [3] it was > 100 µM; in assay [4], 28.1 µM; in [5], > 100 µM; in [6], > 100 µM. In addition, the TGI in [7], in [8], in [9] and in [10] was > 100 µM in each case.
As to `Cn1cnc(SC2=CC(=O)C=C3S[C@H]4C[C@@]23c2c(c(O)c3c5c2=NCCC=5C=N3)N4)c1CC(N)C(=O)O` (stereo partly drawn), the GI50 in [1] is 19.3 µM; in assay [2], 2990 nM; in assay [3], 3240 nM; in assay [4], 2370 nM; in assay [5], 18 µM; in [7] it was 19.4 µM. Also, the GI50 in [8] is 18 µM; in [10], 16.2 µM. Further, the TGI in [1] is 33.5 µM; in assay [2], 8.98 µM; in assay [3], 10.7 µM; in [4], 5.04 µM; in assay [5], 36.6 µM; in assay [6], 15.2 µM. Besides, the TGI stood at 33.6 µM in [7], 36.9 µM in assay [8], 9.52 µM in assay [9] and 30.4 µM in [10].
Regarding `COc1ccc(Cc2ccc3[nH]c(=O)cc(C)c3c2)cc1S(=O)(=O)O`, the TGI in assay [1], in assay [2], in assay [3], in [4], in [5] and in assay [6] was > 100 µM each time. Further, the TGI in assay [7], in assay [8], in assay [9] and in assay [10] was > 100 µM throughout.
Turning to `O=C(O)C(Cc1ccccc1)N=Cc1nc(-c2ccccc2)oc1O` (stereo not drawn), the TGI in [1], in assay [2], in [3], in [4], in assay [5] and in [6] was > 100 µM in each case. Moreover, the TGI in assay [7], in assay [8], in assay [9] and in assay [10] was > 100 µM each time.
In the case of `CC1CCCc2c1n[nH]c2CC1CC(=O)NC(=O)C1` (stereo not drawn), the TGI in assay [1], in [2], in [3], in assay [4], in assay [5] and in assay [6] was > 100 µM throughout. In addition, the TGI in [7], in assay [8], in [9] and in assay [10] was > 100 µM each time.
Regarding `O=C(NC1CCCCC1)NC12CC3CC(CC(F)(C3)C1)C2`, the TGI in [1], in assay [2], in assay [3], in assay [4], in assay [5] and in assay [6] was > 100 µM each time. Also, the TGI in [7], in assay [8], in assay [9] and in assay [10] was > 100 µM each time.
`CC1(C)CC[C@]2(C(=O)NCCNCCN)CC[C@]3(C)C(=CC[C@@H]4[C@@]5(C)CCC(=O)C(C)(C)[C@@H]5CC[C@]43C)[C@@H]2C1`: the GI50 in assay [1] was 1.73 µM; in assay [2] it was 2440 nM; in assay [3], 1850 nM; in assay [4], 1830 nM; in assay [5], 2.56 µM; in assay [6], 1900 nM. Besides, the GI50 is 1.98 µM in assay [7], 1.91 µM in assay [8], 1800 nM in assay [9] and 1.75 µM in assay [10]. In addition, the TGI in assay [1] stood at 3.23 µM; in assay [2], 6.15 µM; in assay [3], 3.29 µM; in [4], 3.43 µM; in assay [5], 6.09 µM; in assay [6], 3.71 µM. Also, the TGI came out at 4.56 µM in [7], 4.1 µM in assay [8], 3.56 µM in assay [9] and 3.2 µM in [10].
As for `Cn1cc(-c2ncnc3ccc(-c4cnc(Cl)c(NS(C)(=O)=O)c4)cc23)c2ccccc21`, the GI50 in [1] is 1.67 µM; in [2], 491 nM; in assay [3] it was 617 nM; in assay [4] it was 227 nM; in [5], 0.263 µM; in [6] it was 903 nM. Also, the GI50 in assay [7] is 0.382 µM; in assay [8], 0.505 µM; in assay [9], 1280 nM; in assay [10] it was 0.306 µM. The TGI is 23.4 µM in assay [1]; 4.89 µM in assay [2]; 13.8 µM in [3]; 2.48 µM in assay [4]; 2.32 µM in assay [5]; > 52 µM in assay [6]. Besides, the TGI in [7] was > 100 µM; in assay [8], 10.6 µM; in assay [9], > 100 µM; in assay [10], 6.89 µM.
For `OCC#Cc1ccccc1C#Cc1ccc(C#Cc2ccccc2C#CCO)cc1`, the GI50 in assay [1] is 50 µM; in assay [2] it was 15900 nM; in assay [3], 20000 nM; in assay [4] it was 98900 nM; in assay [5], 55.4 µM; in assay [6] it was 41500 nM. For the same compound, the GI50 in assay [7] is 30.4 µM; in [8], 52.8 µM; in assay [9], 38100 nM; in assay [10], > 100 µM. The TGI in [1] is > 100 µM; in [2], 39.6 µM; in assay [3], 56.6 µM; in [4], > 100 µM; in assay [5], > 100 µM; in [6], > 100 µM. Further, the TGI was 75.9 µM in assay [7], > 100 µM in [8], > 100 µM in assay [9] and > 100 µM in [10].
For the compound `CCCC(=O)Oc1ccc(/C=N/NC(N)=S)nc1`, the TGI in assay [1], in [2], in assay [3], in assay [4], in assay [5] and in assay [6] was > 100 µM in each case. In addition, the TGI in assay [7], in assay [8], in [9] and in [10] was > 100 µM throughout.
Turning to `CCC(CO)Nc1nc(NCc2ccccc2)c2n[nH]c(C(C)C)c2n1` (stereo not drawn), the GI50 in assay [1] is 15.8 µM; in assay [2], 11100 nM; in assay [3], 7320 nM; in assay [4], 13000 nM; in [5], 6.4 µM; in [6], 12300 nM. The GI50 in [7] is 13.4 µM; in assay [8], 13.7 µM; in assay [9], 4760 nM; in assay [10], 10.5 µM. Also, the TGI worked out at 30.5 µM in [1]; 46.3 µM in assay [2]; 22.7 µM in assay [3]; 27.4 µM in assay [4]; 20.7 µM in assay [5]; 31.2 µM in assay [6]. Moreover, the TGI in assay [7] was 36 µM; in assay [8], 33.1 µM; in [9], 18 µM; in assay [10], 27.7 µM.
Turning to `CCCC[C@H](CCc1ccccc1)N(C(=O)OC)N1CCC[C@H]1COC`, the TGI was 30.4 µM in assay [1]; > 100 µM in assay [2]; 32.3 µM in [3]; 32.1 µM in assay [4]; 60.2 µM in assay [5]; 32 µM in assay [6]. The TGI in [7] worked out at 32.4 µM; in [8], 79.3 µM; in assay [9] it was 29.8 µM; in [10], 38 µM.
Turning to `Nc1ccc(C(=O)CC2(O)C(=O)Nc3ccccc32)cc1` (stereo not drawn), the TGI in [1], in assay [2], in assay [3], in assay [4], in assay [5] and in assay [6] was > 100 µM each time. The TGI in assay [7], in assay [8], in assay [9] and in assay [10] was > 100 µM in each case.
Take `C#Cc1cccc(Nc2nc(C)nc3cc(NC(=O)CCl)ccc23)c1`: the GI50 is 1.29 µM in assay [1]; 719 nM in assay [2]; 2700 nM in assay [3]; 465 nM in [4]; 3.81 µM in assay [5]; 2350 nM in assay [6]. The GI50 is 0.953 µM in assay [7], 3.52 µM in assay [8], 659 nM in assay [9] and 3.7 µM in assay [10]. Besides, the TGI was 4.29 µM in assay [1]; 2.27 µM in assay [2]; 6.06 µM in assay [3]; 1.11 µM in assay [4]; 7.31 µM in assay [5]; 7.03 µM in [6]. Moreover, the TGI in assay [7] was found to be 5.38 µM; in assay [8] it was 6.77 µM; in assay [9], 1.93 µM; in assay [10], 7.41 µM.
